Reference: patent publication US6683230B1, “Hybrid seed production” (Syngenta Limited, priority 1998, dated 2004)
Where two headings read alike, the source gives them in different places.

Experiments:
lac repressor = settings: tobacco protoplasts and stable transformants; cited from earlier work
[1] = system: safener induced GST-27 promoter; assay: Reversal of sterility in GST-27-barstar maize WU25 by safener; type: in vivo
Excerpt: The corn transformation vector Zm/RMS14 (described above) carries a barstar gene fused to the safener induced GST-27 promoter. WU25 was shown by PCR to contain this gene fusion. […] There was no effect of the safener on the size or fertility of tassels on non-transgenic fertile plants. […] The resumption of microspore development appears to be linked to the barstar inhibition of barnase thus overcoming the ablation of tapetal cells. […] In contrast, the anthers from sterile plants were collapsed.
The same promoter fragment was fused to barnase to generate the corn transformation vector ZM/RMS14 (FIG. 30). This fusion also contained an out of frame barstar gene with a functional bacterial promoter to provide protection against barnase during the cloning steps. Transgenic maize plants were obtained and several progressed for further analysis. One plant WU25 in particular was studied in some detail by analysing progeny derived from crosses with pollen from a fully fertile plant. All progeny inheriting the transgene as assessed by PCR and leaf paint to detect the pat gene were completely sterile, whereas progeny lacking the transgene were fully fertile. […] In all other respects sterile plants were indistinguishable from their fertile non-transgenic siblings.

AlcA promoter [2] = settings: 0.1% (v/v) ethanol in medium, 3 weeks
Procedure: (§1) Flower material was ground in 2-300 μl of extraction buffer (100 mM sodium phosphate buffer pH 7, 10 mM EDTA, 0.1% Triton X-100, 1% Sarcosyl, 10 mM b-mercaptoethanol). Samples were spun in a microcentrifuge for 15 min and 5 μl of the supernatant was used for Bradford protein assays with BSA as standard. 20 μl was diluted 1 in 5 with extraction buffer and 400 μl of assay buffer (same for extraction buffer except contains 1 mM 4-MUG and 20% methanol). 100 μl was taken (T0 sample) and added to 900 μl of stop buffer (0.2M sodium carbonate) and the rest was incubated at 37° C. for two hours before taking a further 100 μl (T2 samples) to be added to 900 μl stop buffer.
(§2) Florescence of samples was measured in a spectrophotometer and GUS was represented as nM 4M U per mg protein per hour.

AlcA promoter [3] = system: AlcA promoter
Procedure: as §1, §2
(§3) For the GUS staining, the protocol of Blume and Grierson (1997) was used.

AlcA promoter [4] = system: AlcA promoter; remark: listed apart in the source
Excerpt: 1) Oilseed rape (OSR) AlcA-GUS plants were root drenched with 250m1 of either water, 1% or 2% ethanol both on day 0 and day 1. Flower samples from these plants were then taken two days after the first induction.
The first two bars in each section represent uninduced anther and uninduced stigma/style GUS levels respectively. Each bar represents three replicates with each replicate containing anthers from three different flowers or stigma/styles from eight different flowers or ovaries from six different flowers.
2) Oilseed rape Aic-GUS flowers were subjected to GUS staining following induction with ethanol.
as §1, §2, §3

AlcA promoter [5] = settings: ethanol vapour, two days after induction
Excerpt: Alc-GUS tomoato flowers were induced using ethanol vapour as described above for tobacco flowers. Two days after induction, anthers and pollen were stained to detect GUS expression.
as §3

AlcA promoter [6] = settings: ethanol vapour, 2-3 days
Procedure: Scutellum tissue is bombarded with pUIRN.AGS and the tissue exposed to ethanol vapour. […] Transgenic Alc-GUS plants obtained are grown to maturity and seed harvested, inducible GUS expression is determined on the progeny plants in the same way as described above for rice.
as §3

AlcA promoter [7] = system: AlcA promoter; remark: listed apart in the source
AlcA promoter [8] = settings: after induction with ethanol

CC(C)S[C@@H]1O[C@H](CO)[C@H](O)[C@H](O)[C@H]1O [IPTG]
repression of GUS expression by lac repressor (lac repressor): repression can be relieved

CC1CN(C(=O)C(Cl)Cl)C(C)(C)O1 (centres unmarked) [R-29148]
microsporogenesis ([1]; extended treatment with safener): anthers filled with immature post-mitotic pollen | microspore development and tassel size ([1]; foliar application, field grown plants): A similar effect was seen | size or fertility of tassels ([1]; non-transgenic fertile plants): no effect | microspore development in anthers ([1]; root drench, glass house): microspore development was observed | reversal of sterility ([1]; root drench, glass house grown plants): Reversal of sterility was demonstrated | tassel size ([1]; treated vs untreated transgenic plants): increased tassel size relative to untreated plants

CCO [ethanol]
GUS levels in callus (AlcA promoter [2]): levels can be increased with the addition of ethanol | GUS in anthers (AlcA promoter [3]; cut flower stems in 1%, 2% or 5% ethanol, two days): induced by ethanol in the anthers at levels above those seen in the water treated flowers | GUS staining of pistils (AlcA promoter [3]; root drench 250 ml 5% ethanol, two days): induction of GUS in the pistils | GUS in anthers (AlcA promoter [3]; vapour from 50 ml of 5% ethanol in sealed bag, 3 days): higher levels of GUS | GUS levels, all tissues examined (AlcA promoter [4]; 2% ethanol root drench): increase in GUS from both uninduced levels and from the water-treated control plant | GUS staining of pistils (AlcA promoter [4]; 5% ethanol treated plant vs water-treated): induction of GUS in the female tissues | GUS staining of whole inflorescence (AlcA promoter [4]; cut flower stem in 5% ethanol, two days): Blue staining is apparent in the filaments, sepals, petals and the stigma/style regions of the flower | GUS staining of pistil sections (AlcA promoter [4]; root drench 2% ethanol, two days): induction of GUS throughout the pistil region | GUS levels in floral tissues (AlcA promoter [4]; root drench 250 ml 1% or 2% ethanol day 0 and day 1, sampled two days after first induction): increase in GUS levels in floral tissues | GUS staining of flower (AlcA promoter [4]; two days after root drench with 250 ml of 5% ethanol): reporter gene induction in the stigma/style region as well as the filaments | GUS staining of anthers and pollen (AlcA promoter [5]): blue staining was observed in both tissues | GUS staining of bombarded scutellum tissue (AlcA promoter [6]): numerous blue spots are seen | concentration at which induction of GUS expression was observed (AlcA promoter [7]; AlcA promoter): 7 ng/100 ml air | toxicity to operators and environment (AlcA promoter [7]; in vivo): non-toxic to operators and to the environment | concentration at which the inducer is effective (AlcA promoter [7]; root drench, aqueous spray or gas): 1% | reporter gene (CAT) levels in floral tissues (AlcA promoter [8]): increase in reporter gene levels in floral tissues
